In assay [1] the target is Histone-lysine N-methyltransferase KMT5C (Homo sapiens) (UniProt Q86Y97). As to the kind of experiment: Selectivity interaction (Methyltransferase screen (Scintillation proximity assays)) EUB0000255b SUV420H2.
The target of assay [2] is Phosphatidylinositol 4,5-bisphosphate 3-kinase catalytic subunit alpha isoform (Homo sapiens) (UniProt P42336). Particulars: at 10 µM.
The target of assay [3] is RAC-gamma serine/threonine-protein kinase (Homo sapiens, UniProt Q9Y243). The experiment in a line: Selectivity interaction (Kinase screening (Nanosyn)) EUB0000604a AKT3.
In assay [4] the target is T1, Serine/threonine-protein kinase Sgk2 (Homo sapiens) (UniProt Q9HBY8).
T1 sequence (whole entry): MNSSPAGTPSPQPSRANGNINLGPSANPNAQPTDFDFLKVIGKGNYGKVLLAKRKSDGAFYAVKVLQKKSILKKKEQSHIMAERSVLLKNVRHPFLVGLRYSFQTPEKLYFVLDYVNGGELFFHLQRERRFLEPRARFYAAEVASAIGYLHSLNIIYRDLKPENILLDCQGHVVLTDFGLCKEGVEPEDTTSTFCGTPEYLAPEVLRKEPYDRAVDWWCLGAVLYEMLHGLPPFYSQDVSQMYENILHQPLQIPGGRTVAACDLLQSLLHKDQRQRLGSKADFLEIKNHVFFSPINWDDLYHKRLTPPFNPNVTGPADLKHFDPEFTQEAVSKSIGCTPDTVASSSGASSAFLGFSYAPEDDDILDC
As to the kind of experiment: Selectivity interaction (Kinase screening (Nanosyn)) EUB0000604a SGK2.

Assay [5] deals with Mitogen-activated protein kinase kinase kinase kinase 5 (Homo sapiens) (UniProt Q9Y4K4). As to the kind of experiment: Selectivity interaction (ActivX KiNativ screen (kinase selectivity in THP-1 cell lysates)) EUB0000639a MAP4K5. The assay is classed as subcellular. To be noted: lysate.
Assay [6] deals with T2, Dual specificity mitogen-activated protein kinase kinase 3 (Homo sapiens) (UniProt P46734).
T2 sequence (whole entry): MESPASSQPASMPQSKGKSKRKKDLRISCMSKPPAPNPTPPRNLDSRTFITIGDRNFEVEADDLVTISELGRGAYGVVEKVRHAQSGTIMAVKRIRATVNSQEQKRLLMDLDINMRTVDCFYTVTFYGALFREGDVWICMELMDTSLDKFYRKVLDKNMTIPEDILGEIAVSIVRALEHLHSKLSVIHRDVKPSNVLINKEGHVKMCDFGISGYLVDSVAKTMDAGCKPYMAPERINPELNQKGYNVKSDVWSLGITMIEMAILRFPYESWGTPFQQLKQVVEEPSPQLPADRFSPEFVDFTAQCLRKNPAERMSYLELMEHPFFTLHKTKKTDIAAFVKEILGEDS
The experiment in a line: Selectivity interaction (ActivX KiNativ screen (kinase selectivity in THP-1 cell lysates)) EUB0000639a MAP2K3. In kind it is subcellular. Particulars: lysate, at 0.01 µM.

For assay [7], the target named is Ribosomal protein S6 kinase alpha-6 (Homo sapiens, UniProt Q9UK32). The experiment in a line: Selectivity interaction (KinomeScan (DiscoverX)) EUB0000045b RPS6KA6.
The target of assay [8] is T3, Tyrosine-protein kinase ZAP-70 (Homo sapiens) (UniProt P43403).
T3 sequence (whole entry): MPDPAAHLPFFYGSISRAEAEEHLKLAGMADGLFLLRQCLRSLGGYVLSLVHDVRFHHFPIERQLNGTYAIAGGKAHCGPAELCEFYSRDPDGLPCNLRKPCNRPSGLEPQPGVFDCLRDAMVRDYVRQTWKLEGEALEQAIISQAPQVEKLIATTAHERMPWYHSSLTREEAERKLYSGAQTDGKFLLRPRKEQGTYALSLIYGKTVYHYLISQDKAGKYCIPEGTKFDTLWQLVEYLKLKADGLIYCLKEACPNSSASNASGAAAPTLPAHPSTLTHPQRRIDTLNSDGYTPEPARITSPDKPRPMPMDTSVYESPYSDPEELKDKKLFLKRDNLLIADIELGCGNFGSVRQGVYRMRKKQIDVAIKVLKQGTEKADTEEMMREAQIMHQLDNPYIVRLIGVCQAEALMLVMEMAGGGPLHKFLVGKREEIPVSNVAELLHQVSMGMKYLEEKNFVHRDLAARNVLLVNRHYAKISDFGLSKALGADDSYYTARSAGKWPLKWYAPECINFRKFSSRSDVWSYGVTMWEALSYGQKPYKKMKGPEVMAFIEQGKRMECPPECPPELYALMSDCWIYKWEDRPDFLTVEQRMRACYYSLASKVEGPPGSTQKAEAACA
The experiment in a line: Selectivity interaction (Kinase panel (literature)) EUB0001199aCl ZAP70. Particulars: at 1 µM.

The target in assay [9] is SRSF protein kinase 1 (Homo sapiens, UniProt Q96SB4). The experiment in a line: Selectivity interaction (Kinase panel (DSF assay)) EUB0001558a SRPK1. For orientation: DSF heats the sample and reads unfolding from a dye or from intrinsic fluorescence.
Assay [10] concerns the target Sodium-dependent noradrenaline transporter (Homo sapiens, UniProt P23975). The experiment in a line: Selectivity interaction (Panel of kinases, GPCRs, ion channels and transporters (enzymatic assay)) EUB0000266bCl SLC6A2.

Mitogen-activated protein kinase kinase kinase kinase 5 (Homo sapiens), sequence (Q9Y4K4 whole entry, looked up): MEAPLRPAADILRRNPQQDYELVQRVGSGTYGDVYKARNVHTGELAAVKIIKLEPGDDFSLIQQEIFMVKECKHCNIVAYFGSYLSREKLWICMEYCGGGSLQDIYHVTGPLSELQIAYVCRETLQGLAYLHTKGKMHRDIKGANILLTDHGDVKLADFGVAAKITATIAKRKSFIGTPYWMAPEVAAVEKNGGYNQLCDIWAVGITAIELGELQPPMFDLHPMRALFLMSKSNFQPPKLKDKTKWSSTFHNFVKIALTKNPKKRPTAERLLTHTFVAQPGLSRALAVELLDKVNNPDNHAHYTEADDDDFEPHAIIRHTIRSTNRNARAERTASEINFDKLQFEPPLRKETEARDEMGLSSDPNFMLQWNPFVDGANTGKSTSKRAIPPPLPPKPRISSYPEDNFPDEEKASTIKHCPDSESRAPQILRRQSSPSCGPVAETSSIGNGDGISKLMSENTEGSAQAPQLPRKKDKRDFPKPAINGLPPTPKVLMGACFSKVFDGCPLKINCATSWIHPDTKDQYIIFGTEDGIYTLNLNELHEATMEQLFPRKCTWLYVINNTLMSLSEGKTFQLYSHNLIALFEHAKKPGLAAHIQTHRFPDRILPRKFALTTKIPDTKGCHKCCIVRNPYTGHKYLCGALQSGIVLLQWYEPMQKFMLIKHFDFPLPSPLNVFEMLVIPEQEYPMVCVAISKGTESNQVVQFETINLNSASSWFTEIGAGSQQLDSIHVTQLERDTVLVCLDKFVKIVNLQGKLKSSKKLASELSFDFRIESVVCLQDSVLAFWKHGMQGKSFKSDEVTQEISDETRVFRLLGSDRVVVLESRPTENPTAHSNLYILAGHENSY
Ribosomal protein S6 kinase alpha-6, sequence (Q9UK32 whole entry): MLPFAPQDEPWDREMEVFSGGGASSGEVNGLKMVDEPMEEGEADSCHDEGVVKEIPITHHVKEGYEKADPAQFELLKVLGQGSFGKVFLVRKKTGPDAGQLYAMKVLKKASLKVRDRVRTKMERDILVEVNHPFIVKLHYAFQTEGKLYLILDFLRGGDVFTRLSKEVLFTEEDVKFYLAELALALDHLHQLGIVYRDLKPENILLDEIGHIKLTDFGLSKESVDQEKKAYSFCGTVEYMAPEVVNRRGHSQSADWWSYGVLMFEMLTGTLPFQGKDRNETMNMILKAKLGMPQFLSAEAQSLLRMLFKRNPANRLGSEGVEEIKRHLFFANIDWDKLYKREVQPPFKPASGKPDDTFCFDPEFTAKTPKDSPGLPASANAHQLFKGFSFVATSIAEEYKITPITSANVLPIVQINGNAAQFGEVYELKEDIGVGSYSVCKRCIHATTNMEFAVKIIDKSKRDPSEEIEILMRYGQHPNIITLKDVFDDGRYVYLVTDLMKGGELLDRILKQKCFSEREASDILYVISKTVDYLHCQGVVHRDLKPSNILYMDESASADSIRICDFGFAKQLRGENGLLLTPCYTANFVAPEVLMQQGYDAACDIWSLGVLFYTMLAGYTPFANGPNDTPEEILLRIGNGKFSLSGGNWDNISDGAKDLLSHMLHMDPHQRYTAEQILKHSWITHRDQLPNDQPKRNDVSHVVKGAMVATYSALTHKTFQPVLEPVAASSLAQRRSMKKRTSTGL
Histone-lysine N-methyltransferase KMT5C (Homo sapiens), sequence (Q86Y97 whole entry, looked up, canonical isoform): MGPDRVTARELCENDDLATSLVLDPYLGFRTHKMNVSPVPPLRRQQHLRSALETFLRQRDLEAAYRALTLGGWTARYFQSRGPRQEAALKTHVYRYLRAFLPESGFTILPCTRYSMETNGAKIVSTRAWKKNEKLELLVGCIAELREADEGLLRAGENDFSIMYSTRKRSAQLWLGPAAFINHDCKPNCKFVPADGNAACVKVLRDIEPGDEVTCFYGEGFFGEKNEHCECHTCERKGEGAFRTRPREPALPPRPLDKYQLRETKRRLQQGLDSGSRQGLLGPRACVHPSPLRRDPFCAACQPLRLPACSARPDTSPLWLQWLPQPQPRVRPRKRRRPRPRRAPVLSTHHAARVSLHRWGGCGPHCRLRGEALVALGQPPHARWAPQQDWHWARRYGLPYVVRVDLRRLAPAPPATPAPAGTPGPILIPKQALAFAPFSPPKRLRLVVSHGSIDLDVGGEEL
RAC-gamma serine/threonine-protein kinase, sequence (Q9Y243 whole entry): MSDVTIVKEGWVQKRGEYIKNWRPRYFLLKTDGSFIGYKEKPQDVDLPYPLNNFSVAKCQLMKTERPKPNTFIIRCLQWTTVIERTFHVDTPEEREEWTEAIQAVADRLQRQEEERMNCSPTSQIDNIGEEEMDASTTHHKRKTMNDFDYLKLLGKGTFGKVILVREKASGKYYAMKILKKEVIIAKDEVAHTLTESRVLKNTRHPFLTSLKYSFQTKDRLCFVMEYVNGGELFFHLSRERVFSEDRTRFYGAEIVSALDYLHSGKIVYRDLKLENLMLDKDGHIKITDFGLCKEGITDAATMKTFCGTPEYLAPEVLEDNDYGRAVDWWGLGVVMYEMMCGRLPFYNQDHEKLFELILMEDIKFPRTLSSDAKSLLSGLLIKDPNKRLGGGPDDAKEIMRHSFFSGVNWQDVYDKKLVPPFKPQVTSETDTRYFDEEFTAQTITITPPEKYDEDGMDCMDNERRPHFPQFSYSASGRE
SRSF protein kinase 1, sequence (Q96SB4 whole entry): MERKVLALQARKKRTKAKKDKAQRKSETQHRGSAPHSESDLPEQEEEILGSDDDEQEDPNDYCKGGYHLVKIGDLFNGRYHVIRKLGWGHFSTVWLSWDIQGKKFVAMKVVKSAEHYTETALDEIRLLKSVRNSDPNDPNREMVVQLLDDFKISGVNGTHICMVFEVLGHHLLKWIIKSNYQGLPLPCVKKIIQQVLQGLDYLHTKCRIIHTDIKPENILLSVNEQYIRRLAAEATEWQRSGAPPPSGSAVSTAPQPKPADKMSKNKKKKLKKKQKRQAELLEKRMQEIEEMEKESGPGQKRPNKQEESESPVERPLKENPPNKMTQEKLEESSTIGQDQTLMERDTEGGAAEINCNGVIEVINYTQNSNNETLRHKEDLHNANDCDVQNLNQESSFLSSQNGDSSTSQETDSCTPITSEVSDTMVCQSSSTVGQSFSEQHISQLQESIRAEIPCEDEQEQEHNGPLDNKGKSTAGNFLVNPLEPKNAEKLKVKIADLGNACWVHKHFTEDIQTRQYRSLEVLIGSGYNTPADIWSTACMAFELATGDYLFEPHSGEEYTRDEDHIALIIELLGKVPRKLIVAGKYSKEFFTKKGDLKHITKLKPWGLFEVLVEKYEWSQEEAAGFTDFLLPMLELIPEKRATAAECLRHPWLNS
Phosphatidylinositol 4,5-bisphosphate 3-kinase catalytic subunit alpha isoform (Homo sapiens), sequence (P42336 whole entry, canonical isoform): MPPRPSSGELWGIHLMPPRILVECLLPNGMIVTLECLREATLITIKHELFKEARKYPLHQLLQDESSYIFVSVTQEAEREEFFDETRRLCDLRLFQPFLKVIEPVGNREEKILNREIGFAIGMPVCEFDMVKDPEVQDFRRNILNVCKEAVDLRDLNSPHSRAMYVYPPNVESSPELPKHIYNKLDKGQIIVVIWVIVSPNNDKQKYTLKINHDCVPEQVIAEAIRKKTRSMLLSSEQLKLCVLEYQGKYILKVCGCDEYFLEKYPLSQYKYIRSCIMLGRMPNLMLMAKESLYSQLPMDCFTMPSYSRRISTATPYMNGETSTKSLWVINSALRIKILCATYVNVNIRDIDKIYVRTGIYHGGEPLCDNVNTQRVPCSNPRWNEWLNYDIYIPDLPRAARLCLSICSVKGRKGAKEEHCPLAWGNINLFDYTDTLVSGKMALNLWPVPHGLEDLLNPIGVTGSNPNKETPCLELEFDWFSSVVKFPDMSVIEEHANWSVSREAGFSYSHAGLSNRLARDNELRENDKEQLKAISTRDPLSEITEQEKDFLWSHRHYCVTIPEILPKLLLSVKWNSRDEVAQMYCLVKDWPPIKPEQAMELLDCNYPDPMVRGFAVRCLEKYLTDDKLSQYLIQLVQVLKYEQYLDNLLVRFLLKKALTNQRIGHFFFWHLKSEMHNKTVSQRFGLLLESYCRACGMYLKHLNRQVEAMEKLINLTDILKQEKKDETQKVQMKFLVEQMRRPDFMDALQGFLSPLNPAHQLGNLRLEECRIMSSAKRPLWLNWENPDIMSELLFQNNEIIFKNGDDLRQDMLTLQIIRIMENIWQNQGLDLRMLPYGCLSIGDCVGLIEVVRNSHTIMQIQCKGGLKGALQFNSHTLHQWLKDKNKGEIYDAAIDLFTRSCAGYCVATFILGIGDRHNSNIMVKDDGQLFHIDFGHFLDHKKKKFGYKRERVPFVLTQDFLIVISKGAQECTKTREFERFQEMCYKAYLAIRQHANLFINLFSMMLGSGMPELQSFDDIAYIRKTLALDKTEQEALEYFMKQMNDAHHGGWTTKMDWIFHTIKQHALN
Sodium-dependent noradrenaline transporter, sequence (P23975 whole entry): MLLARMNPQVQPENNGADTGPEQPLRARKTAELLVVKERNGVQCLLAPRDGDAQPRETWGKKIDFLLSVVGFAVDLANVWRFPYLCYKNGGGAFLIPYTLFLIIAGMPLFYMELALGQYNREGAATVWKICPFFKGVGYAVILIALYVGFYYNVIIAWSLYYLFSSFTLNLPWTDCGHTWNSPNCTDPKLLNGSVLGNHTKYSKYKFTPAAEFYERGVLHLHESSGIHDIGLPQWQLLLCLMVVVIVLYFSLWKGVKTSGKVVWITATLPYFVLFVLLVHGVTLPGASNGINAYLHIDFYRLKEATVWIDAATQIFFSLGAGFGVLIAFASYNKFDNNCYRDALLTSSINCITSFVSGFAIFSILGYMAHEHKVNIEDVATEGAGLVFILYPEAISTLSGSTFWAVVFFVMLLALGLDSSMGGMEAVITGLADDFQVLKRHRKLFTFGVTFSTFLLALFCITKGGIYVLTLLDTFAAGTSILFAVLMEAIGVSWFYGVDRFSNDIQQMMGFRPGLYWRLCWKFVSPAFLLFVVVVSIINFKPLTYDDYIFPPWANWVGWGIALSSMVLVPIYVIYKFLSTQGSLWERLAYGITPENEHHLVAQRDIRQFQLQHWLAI

Turning to `COCCN1CCC(c2cc(CN(C)C(=O)c3cccc(Oc4ccccc4)c3)ccn2)CC1`, the % activity in [1] (at 1 µM) is above 95%; in [1] (at 10 µM), above 90%.
As to `CNC(=O)Nc1ccc(-c2nc(N3CC4CCC(C3)O4)c3cnn(C4CCC5(CC4)OCCO5)c3n2)cc1`, the % of control in [2] came out at 16%.
As for `Cc1cnc(Nc2ccc(F)cc2Cl)nc1-c1c[nH]c(C(=O)N[C@H](CO)c2cccc(Cl)c2)c1`, the % of inhibition in [3] is 0%; in assay [4] it was 41%.
Turning to `CC[C@@H]1[C@H](F)C(=O)N[C@@H]1COc1nccc2cc(C(N)=O)c(OC)cc12` [ZIMLOVISERTIB], the % of inhibition in [5] (at 0.01 µM) is -0.9%; in assay [5] (at 0.04 µM) it was 0%; in assay [5] (at 0.2 µM), 3.2%; in assay [5] (at 1 µM) it was 9.9%; in [5] (at 5 µM) it was 11.8%; in [6], 9%.
`C=CC(=O)Nc1cc(-n2c(=O)ccc3cnc4ccc(-c5ccc(NS(C)(=O)=O)cc5)cc4c32)ccc1C`: the % of control turned out to be 100% in assay [7] (at 1 µM) and 56% in [7] (at 10 µM).
Turning to `CN1Cc2nccc(-c3cn(C)nc3-c3ccc(F)cc3)c2C1=O`, the % of inhibition in [8] is 6%.
In assay [9], `CC(C)(O)[C@H](F)CN1Cc2cc(NC(=O)c3cnn4cccnc34)c(N3CCOCC3)cc2C1=O` came in with a dTM of 1.1 K.
Compound `CCn1c(-c2nc3cc(C(=O)N4CCCC(N)C4)ccc3n2C)cc2ccccc21` (stereo unspecified) had a pXC50 in assay [10] of 4.4 M.

The record behind these values is ChEMBL document CHEMBL5465560, “Selectivity Literature for EUbOPEN Chemogenomic Library” (2024).
